Here are results for one compound from article PMC5915154, “Aloe-emodin as drug candidate for cancer therapy” (Oncotarget, 2018).

The experiment deals with CCRF-CEM cells. Put plainly: Mitochondrial membrane potential (JC-1, flow cytometry). It counts as cell-based, human. To be noted: CCRF-CEM, 2- and 4-fold IC50, 24 and 48 h. An excerpt:
The JC-1 Mitochondrial Membrane Potential Assay Kit (Cayman Chemical, Ann Arbor, MI, USA) was applied for the detection of MMP by flow cytometry according to the manufacturer’s instructions. The cationic dye, 5, 5’, 6, 6’- tetrachloro- 1, 1’, 3, 3’- tetraethylbenzimidazolylcarbocyanine iodide (JC-1) enters the mitochondria and changes its fluorescent properties based on the aggregation of the probe. In healthy cells having high MMP, JC-1 forms complexes known as J-aggregates with intense red fluorescence. On the other hand, in cells with low MMP, JC-1 remains in its monomeric form showing green fluorescence. […] A LSR-Fortessa FACS analyzer (Becton–Dickinson) was used to detect the J-aggregate form of JC-1 with an excitation wavelength of 535 ± 20 nm and an emission wavelength of 590 ± 20 nm as well as the monomeric form of JC-1 at excitation and emission wavelengths of 485 and 535 nm, respectively. The results were analyzed by the FlowJo software (Celeza, Olten, Switzerland). 2×10^4 cells were counted for each experiment which were repeated in triplicate.

Consider `O=C1c2cccc(O)c2C(=O)c2c(O)cc(CO)cc21` [Aloe-emodin], for which the “MMP depolarization (JC-1 fluorescence)” value is “shift from red to green fluorescence”.
